According to ChEMBL document CHEMBL1201862, “PubChem BioAssay data set” (2004):
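Five compound concentrations were applied to cells in 96-well plates for 48 hours; endpoints were derived by simple linear interpolation of the resulting dose-response curve. The concentration for 50% growth inhibition is given as GI50.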 Active and inactive are the calls of the source. No stated cut-off is given here; in the data, active = GI50 up to about 1.1 µM and inactive = higher. Non-standard residues stand in square brackets, D forms with d. Residues, ends and D or L forms follow the SMILES beside them. ξ: configuration not given here. Pen = CC(C)(S)[C@H](N)C(=O)O; ξL = CC(C)CC(N)C(=O)O

Key:
Test in all cases: DTP human tumour cell line panel, 48 h
ACHN = tested on: ACHN
DMS-273 = tested on: DMS-273
HCT-15 = tested on: HCT-15
HOP-18 = tested on: HOP-18
KM-20L2 = tested on: KM-20L2
M19-MEL = tested on: M19-MEL
MOLT-4 = tested on: MOLT-4
OVCAR-3 = tested on: OVCAR-3
OVCAR-5 = tested on: OVCAR-5
OVCAR-8 = tested on: OVCAR-8
SNB-19 = tested on: SNB-19
SNB-78 = tested on: SNB-78
SW-620 = tested on: SW-620
UACC-62 = tested on: UACC-62
XF498 = tested on: XF498

| SMILES | GI50 (ACHN) | GI50 (DMS-273) | GI50 (HCT-15) [µM] | GI50 (HOP-18) | GI50 (KM-20L2) | GI50 (M19-MEL) | GI50 (MOLT-4) | GI50 (OVCAR-3) | GI50 (OVCAR-5) | GI50 (OVCAR-8) | GI50 (SNB-19) | GI50 (SNB-78) | GI50 (SW-620) | GI50 (UACC-62) | GI50 (XF498) |
| --- | --- | --- | --- | --- | --- | --- | --- | --- | --- | --- | --- | --- | --- | --- | --- |
| C[n+]1[se]c2ccccc2c1Cl | > 48.8 µM (inactive) | 20 µM (inactive) | 24.7 | 20.7 µM (inactive) | > 51.1 µM (inactive) | 10.3 µM (inactive) | 13.5 µM (inactive) | 27 µM (inactive) | > 52.1 µM (inactive) | 45 µM (inactive) | > 67.8 µM (inactive) | 27.8 µM (inactive) | 20 µM (inactive) | 17.7 µM (inactive) | 37.2 µM (inactive) |
| CN(C)CCOc1cc2c(c3ccccc13)-c1ccccc1C2=O |  | 0.531 µM (active) | 1.18 | 2.07 µM (inactive) | 2.1 µM (inactive) | 1.35 µM (inactive) | 0.339 µM (active) | 1.9 µM (inactive) | 2.47 µM (inactive) | 0.895 µM (active) | 2.7 µM (inactive) | 6.03 µM (inactive) | 1.39 µM (inactive) | 1.8 µM (inactive) | 1.6 µM (inactive) |
| C=C1C[C@@H](O)C[C@@]2(C)C[C@@H]3OC(=O)C(=C)[C@@H]3C[C@H]12 |  | 5.35 µM (inactive) | 4.42 | 3.98 µM (inactive) | 5.83 µM (inactive) | 20.4 µM (inactive) | 3.2 µM (inactive) | 11.2 µM (inactive) | 7.36 µM (inactive) | 16 µM (inactive) | 5.21 µM (inactive) | 7.69 µM (inactive) | 5.42 µM (inactive) | 5.96 µM (inactive) | 0.678 µM (active) |
| C[Si](C)(C)/C(I)=C/CO | 17 µM (inactive) | 20.6 µM (inactive) | 24.8 | 32 µM (inactive) | 20.5 µM (inactive) | 20.8 µM (inactive) | 17 µM (inactive) | 24.7 µM (inactive) | 30.5 µM (inactive) | 29.7 µM (inactive) | 29.6 µM (inactive) | 28.6 µM (inactive) | 23.3 µM (inactive) | 20.4 µM (inactive) | 13.6 µM (inactive) |
| Cc1cc(O)c2c(c1O)C(=O)C13C(=C(O)C4C(O)C1C1C(O)C3C(O)=C3C(=O)c5c(O)cc(C)c(O)c5C(=O)C341)C2=O (centres undefined) |  | 0.0962 µM (active) | 0.0367 | 0.0615 µM (active) | 4.28 µM (inactive) | 0.0545 µM (active) | 0.0541 µM (active) | 3.56 µM (inactive) | 0.778 µM (active) | 0.0615 µM (active) | 0.668 µM (active) | 0.0803 µM (active) | 0.0507 µM (active) | 0.0489 µM (active) | 0.134 µM (active) |
| CSCC[C@H](NC(=O)C(CC(C)C)NC(=O)[C@H](Cc1c[nH]cn1)NC(=O)CNC(=O)[C@@H](NC(=O)[C@@H](C)NC(=O)[C@H](Cc1c[nH]c2ccccc12)NC(=O)[C@H](CCC(N)=O)NC(=O)[C@@H](N)CC(N)=O)C(C)(C)SC)C(N)=O (some centres undefined) (H-NQW[dA][Pen](Me)GH[ξL]M-NH2) |  | > 100 µM (inactive) | > 100 | > 100 µM (inactive) | > 100 µM (inactive) | > 100 µM (inactive) | > 100 µM (inactive) | > 100 µM (inactive) | > 100 µM (inactive) | > 100 µM (inactive) | > 100 µM (inactive) | > 100 µM (inactive) | > 100 µM (inactive) | > 100 µM (inactive) | > 100 µM (inactive) |
| CN(C)CCNC(=O)c1cc(Cl)cc2cc3ccccc3nc12 |  | 0.733 µM (active) | 0.755 | 6.44 µM (inactive) | 0.422 µM (active) | 1.3 µM (inactive) | 0.396 µM (active) | 4.71 µM (inactive) | 1.15 µM (inactive) | 0.542 µM (active) | 1.33 µM (inactive) | 1.97 µM (inactive) | 0.519 µM (active) | 0.652 µM (active) | 0.966 µM (active) |
| CCOC(=O)CNC(=O)NC12CC3CC(CC(C3)C1)C2 |  | 223 µM (inactive) | 229 | 161 µM (inactive) | 237 µM (inactive) | 111 µM (inactive) | 180 µM (inactive) | 153 µM (inactive) | 432 µM (inactive) | 490 µM (inactive) | 270 µM (inactive) | 221 µM (inactive) | 247 µM (inactive) | 125 µM (inactive) | 22.1 µM (inactive) |
